Laboratory results taken from ChEMBL document CHEMBL1201862, “PubChem BioAssay data set” (2004).
Activity calls are given as the source filed them.

Key:
[1] = biological target: Beta-2 adrenergic receptor (Homo sapiens, UniProt P07550); assay: beta2AR agonists driving receptor internalization, dose response, cell-based, FAP fluorogen, flow cytometry, cherry pick 1 (AID 588763); type: functional
BJ [2] = assay: cytotoxicity toward BJ-TERT fibroblasts, dose response, cell-based, RAS-independent, luminescence (AID 1933); type: functional; details: Homo sapiens
[3] = biological target: T1, Heat shock factor protein 1 (Mus musculus, UniProt P38532); assay: inhibition of MG132-induced HSE-luciferase signal, confirmation, cell-based, NIH3T3, luminescence, dose retest (AID 2382); type: functional;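 note: NIH3T3 fibroblasts with HSF1-driven luciferase reporter stressed by proteasome inhibitor MG132; luminescence from HSF1-driven luciferase expression after 8 hours of MG132 stress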
T1 sequence (P38532 whole entry): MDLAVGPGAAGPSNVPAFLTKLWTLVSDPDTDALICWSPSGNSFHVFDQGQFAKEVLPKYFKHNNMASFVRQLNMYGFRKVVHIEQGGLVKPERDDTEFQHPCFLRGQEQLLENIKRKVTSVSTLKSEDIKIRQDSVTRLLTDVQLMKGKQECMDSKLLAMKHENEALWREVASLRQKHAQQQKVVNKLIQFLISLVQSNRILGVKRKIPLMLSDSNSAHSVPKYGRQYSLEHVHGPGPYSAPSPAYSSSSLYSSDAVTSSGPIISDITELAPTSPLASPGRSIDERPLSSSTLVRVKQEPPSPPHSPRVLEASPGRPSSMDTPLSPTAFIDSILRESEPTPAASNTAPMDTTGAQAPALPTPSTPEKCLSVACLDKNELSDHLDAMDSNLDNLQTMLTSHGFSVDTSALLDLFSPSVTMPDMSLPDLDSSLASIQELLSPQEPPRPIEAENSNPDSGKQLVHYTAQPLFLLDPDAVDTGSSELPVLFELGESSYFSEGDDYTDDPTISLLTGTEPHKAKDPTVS

BJ [4] = assay: cells; type: functional, cell-based; details: Homo sapiens
BJ [5] = assay: cytotoxicity toward BJ-TERT-LT-ST fibroblasts, dose response, cell-based, RAS-independent, luminescence (AID 1935); type: functional; details: Homo sapiens;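 note: BJ fibroblasts immortalized with TERT plus LT and ST oncogenes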
[6] = cytotoxicity toward DRD oncogenic fibroblasts, dose response, cell-based, non-viral oncogenic, luminescence (AID 1934); type: functional; details: Homo sapiens
BJ [7] = assay: cytotoxicity toward Ras-transformed BJeLR fibroblasts, dose response, cell-based, alamar blue fluorescence, cherrypicked samples (AID 2631); type: functional; details: Homo sapiens;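 note: confirmatory dose-response assay in RAS-dependent BJ fibroblasts engineered with TERT, LT and ST, with cytotoxicity read by fluorescence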
[8] = biological target: Heat shock protein HSP 90-alpha (Homo sapiens, UniProt P07900); type: functional, organism-based
Vero = Vero cell cytotoxicity, cytotoxicity control for flavivirus capping enzyme inhibitors (AID 588742); type: functional; details: Chlorocebus sabaeus
[9] = biological target: Dual specificity tyrosine-phosphorylation-regulated kinase 1A (Rattus norvegicus, UniProt Q63470); type: biochemical, Homo sapiens
[10] = biological target: T2, Polyadenylate-binding protein 1 (Homo sapiens, UniProt P11940); assay: PABP1 MLLE–PAM2 interaction inhibitors, dose response, miRNA deadenylation inhibitor project, biochemical, fluorescence polarization, Cy5-PAM2 peptide, secondary (AID 602260); type: functional; details: read-out: IC50_Mean
T2 sequence (P11940 whole entry): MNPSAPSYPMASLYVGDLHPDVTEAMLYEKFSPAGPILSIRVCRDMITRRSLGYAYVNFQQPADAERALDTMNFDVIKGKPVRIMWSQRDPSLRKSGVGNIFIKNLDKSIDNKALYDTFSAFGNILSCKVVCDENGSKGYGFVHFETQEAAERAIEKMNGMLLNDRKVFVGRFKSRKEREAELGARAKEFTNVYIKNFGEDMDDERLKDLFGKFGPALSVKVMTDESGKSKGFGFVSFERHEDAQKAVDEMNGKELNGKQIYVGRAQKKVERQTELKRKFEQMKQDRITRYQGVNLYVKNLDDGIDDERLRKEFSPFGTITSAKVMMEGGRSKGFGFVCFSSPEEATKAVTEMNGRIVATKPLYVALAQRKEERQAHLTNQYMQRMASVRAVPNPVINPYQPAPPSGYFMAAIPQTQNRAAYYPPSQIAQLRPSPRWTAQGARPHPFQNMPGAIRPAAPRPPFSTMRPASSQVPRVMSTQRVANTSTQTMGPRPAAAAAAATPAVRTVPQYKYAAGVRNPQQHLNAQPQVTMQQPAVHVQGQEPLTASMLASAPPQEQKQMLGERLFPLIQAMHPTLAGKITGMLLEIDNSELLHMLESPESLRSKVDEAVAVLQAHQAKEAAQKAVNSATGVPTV

[11] = biological target: T2, Polyadenylate-binding protein 1; assay: PABP1 MLLE–PAM2 binding inhibitor potency, dose response, biochemical, fluorescence polarization, FITC-PAM2 peptide (AID 602259); type: functional; details: read-out: IC50_Mean
[12] = biological target: T1, Heat shock factor protein 1; assay: HSF1 potentiators in luciferase reporter cells, confirmation, cell-based, NIH3T3, luminescence, dose retest (AID 435004); type: functional;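 note: stress induced by proteasome inhibitor MG132 added 30 min after compound; luciferase reporter driven by HSF1 response element in NIH3T3 cells; actives raise luminescence as potentiators of the MG132 stress response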
Escherichia coli = assay: microbe, parasite or virus in culture
Mucolipin-3 = biological target: T3, Mucolipin-3 (Homo sapiens, UniProt Q8TDD5); assay: Dose response cell-based high-throughput screening assay for agonists of the transient receptor potential channel ML3 (TRPML3). [Related pubchem assays: 1526, 1424, 1448 ]; type: functional
T3 sequence (Q8TDD5 whole entry): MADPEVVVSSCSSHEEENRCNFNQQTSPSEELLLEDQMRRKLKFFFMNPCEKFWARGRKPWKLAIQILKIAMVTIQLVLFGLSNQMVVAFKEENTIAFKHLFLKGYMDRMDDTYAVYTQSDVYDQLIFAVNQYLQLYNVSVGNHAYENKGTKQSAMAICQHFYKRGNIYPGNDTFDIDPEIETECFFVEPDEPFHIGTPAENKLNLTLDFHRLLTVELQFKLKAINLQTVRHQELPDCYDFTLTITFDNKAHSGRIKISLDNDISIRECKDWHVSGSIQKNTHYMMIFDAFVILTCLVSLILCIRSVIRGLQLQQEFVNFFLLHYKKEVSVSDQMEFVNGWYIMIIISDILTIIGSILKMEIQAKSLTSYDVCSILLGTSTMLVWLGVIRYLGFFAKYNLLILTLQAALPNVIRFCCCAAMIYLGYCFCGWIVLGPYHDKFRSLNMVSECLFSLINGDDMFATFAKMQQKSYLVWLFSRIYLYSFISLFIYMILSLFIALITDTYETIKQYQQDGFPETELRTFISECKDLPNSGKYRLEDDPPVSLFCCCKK

Ion channel NompC = Ion channel NompC (Danio rerio, UniProt Q7T1G6); assay: Fluorescence counterscreen assay for TRPML3 agonists: dose response cell-based high-throughput screening assay to identify agonists of the transient receptor potential channel N1 (TRPN1). [Related pubchem assays: 1526, 1424, 1448 ]; type: functional
Ion channel NompC, sequence (Q7T1G6 whole entry): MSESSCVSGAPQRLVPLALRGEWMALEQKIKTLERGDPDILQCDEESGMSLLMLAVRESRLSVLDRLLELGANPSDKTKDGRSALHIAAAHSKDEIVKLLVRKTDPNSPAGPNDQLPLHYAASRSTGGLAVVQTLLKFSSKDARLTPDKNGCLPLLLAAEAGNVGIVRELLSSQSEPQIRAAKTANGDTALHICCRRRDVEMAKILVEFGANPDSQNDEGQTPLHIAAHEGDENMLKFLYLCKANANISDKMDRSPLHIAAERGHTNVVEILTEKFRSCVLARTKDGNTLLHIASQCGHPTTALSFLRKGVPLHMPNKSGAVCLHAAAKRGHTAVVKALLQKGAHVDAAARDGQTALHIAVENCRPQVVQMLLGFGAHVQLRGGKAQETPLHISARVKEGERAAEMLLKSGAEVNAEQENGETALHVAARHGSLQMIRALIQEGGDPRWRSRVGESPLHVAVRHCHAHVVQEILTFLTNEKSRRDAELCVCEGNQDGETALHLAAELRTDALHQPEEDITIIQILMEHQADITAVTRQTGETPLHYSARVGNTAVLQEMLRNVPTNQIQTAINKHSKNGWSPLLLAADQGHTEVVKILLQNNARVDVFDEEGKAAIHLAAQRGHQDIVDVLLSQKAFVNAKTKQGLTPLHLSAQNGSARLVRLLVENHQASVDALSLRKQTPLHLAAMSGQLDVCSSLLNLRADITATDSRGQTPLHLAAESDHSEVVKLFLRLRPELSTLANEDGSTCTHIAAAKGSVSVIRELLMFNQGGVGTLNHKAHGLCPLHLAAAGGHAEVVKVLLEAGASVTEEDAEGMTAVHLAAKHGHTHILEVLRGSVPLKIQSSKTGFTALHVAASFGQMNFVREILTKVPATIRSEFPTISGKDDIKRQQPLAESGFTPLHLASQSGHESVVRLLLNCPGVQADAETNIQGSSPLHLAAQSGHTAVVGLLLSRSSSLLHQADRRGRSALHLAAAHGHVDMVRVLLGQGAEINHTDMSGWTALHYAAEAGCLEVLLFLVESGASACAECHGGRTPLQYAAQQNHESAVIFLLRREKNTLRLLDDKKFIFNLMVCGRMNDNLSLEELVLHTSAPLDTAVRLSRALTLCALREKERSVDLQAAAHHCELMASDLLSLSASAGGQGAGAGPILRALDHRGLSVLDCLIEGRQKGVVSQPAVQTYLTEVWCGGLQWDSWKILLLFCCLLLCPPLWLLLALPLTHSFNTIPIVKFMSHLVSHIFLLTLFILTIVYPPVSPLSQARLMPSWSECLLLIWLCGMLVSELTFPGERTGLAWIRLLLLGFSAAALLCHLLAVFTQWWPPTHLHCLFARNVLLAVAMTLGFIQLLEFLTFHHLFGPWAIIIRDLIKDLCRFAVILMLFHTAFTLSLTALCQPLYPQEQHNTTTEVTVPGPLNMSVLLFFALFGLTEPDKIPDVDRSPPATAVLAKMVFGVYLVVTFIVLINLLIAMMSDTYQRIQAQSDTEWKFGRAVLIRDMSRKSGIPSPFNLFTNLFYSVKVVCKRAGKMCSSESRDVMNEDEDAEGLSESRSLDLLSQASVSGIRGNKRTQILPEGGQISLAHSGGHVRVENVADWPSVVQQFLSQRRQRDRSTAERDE

HEK293 [13] = assay: cells; details: Homo sapiens
HEK293 [14] = assay: cells; details: Homo sapiens; remark: listed apart in the source
[15] = NIH-3T3 fibroblast cytotoxicity, dose response, cytotoxicity control, cell-based, fluorescence, Alamar Blue, secondary assay (AID 2327); type: functional;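 note: NIH-3T3 mouse fibroblasts cultured with fluconazole at 8 µg/mL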
[16] = inhibitors of firefly luciferase expression or activity, dose response, H4 neuroglioma cells, luminescence (AID 1990); type: functional, cell-based
[17] = Luminescence Cell-Based Dose Response HTS to Identify Inhibitors of 5'UTR Stem-Loop Driven Prion Protein mRNA Translation in H4 Neuroglioblastoma Cells. [Related pubchem assays: 1827 (Project Summary), 1813 (Primary HTS)]; type: functional
[18] = inhibitors of SNCA 5'UTR-driven reporter translation, confirmation, H4 neuroglioma cells, luminescence (AID 1988); type: functional, cell-based
[19] = C. albicans growth with fluconazole, confirmation, fluorescence, retest (AID 2467); type: functional, cell-based
[20] = microbe, parasite or virus in culture; type: functional; details: Mycobacterium tuberculosis
[21] = biological target: T4, Ubiquitin-conjugating enzyme E2 N (Homo sapiens, UniProt P61088); type: functional;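 note: Dose-response confirmation in a TR-FRET assay detecting UBC13-driven polyubiquitin chain formation, inhibition measured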
T4 sequence (P61088 whole entry): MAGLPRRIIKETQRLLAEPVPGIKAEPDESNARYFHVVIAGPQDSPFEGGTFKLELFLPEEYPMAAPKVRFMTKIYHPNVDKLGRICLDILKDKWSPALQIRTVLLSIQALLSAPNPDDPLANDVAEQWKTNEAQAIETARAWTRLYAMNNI

INS1 = assay: beta cell apoptosis inhibitors, cytokine rescue, dose response, luminescence, retest (AID 449756); type: functional, cell-based; details: Rattus norvegicus;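 note: cell death triggered by IL-1 beta plus TNF-alpha plus IFN-gamma mixture; protective hits raise ATP signal compared with cytokine alone wells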
[22] = inhibitors of PGC1a acetylation in cells, dose response, cell-based, cherry-picked samples (AID 720514); type: functional;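 note: potency may reflect raised or lowered acetylation signal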

Beta-2 adrenergic receptor, sequence (P07550 whole entry): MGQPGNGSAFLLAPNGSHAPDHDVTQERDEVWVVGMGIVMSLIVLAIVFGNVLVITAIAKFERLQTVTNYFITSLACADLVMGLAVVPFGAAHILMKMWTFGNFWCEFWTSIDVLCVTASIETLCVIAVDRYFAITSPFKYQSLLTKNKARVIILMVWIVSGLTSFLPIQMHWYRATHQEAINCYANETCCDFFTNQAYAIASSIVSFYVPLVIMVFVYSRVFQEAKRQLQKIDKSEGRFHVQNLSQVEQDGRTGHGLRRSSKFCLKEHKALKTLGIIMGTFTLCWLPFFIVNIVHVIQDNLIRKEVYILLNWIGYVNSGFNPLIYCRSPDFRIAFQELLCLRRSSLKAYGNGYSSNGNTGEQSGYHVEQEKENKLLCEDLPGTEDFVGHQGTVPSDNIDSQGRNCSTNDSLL

For `CC(=O)Nc1ccc(-c2nnc(SCc3ccc(C)cc3)n2C)cc1`, the EC50 [1] was 3.6 µM (active).

In the case of `Nc1nc(CCl)nc(Nc2cccc3ccccc23)n1`, the EC50 (BJ [2]) is reported as 0.288 µM (active), the EC50 [3] is reported as 3.74 µM (active) and the EC50 (BJ [4]) is reported as 2.73 µM (inconclusive). For the same molecule, the EC50 (BJ [5]) was 9.87 µM (inconclusive), the EC50 [6] was 1.98 µM (active) and the EC50 (BJ [7]) was 6.34 µM (active).

In the case of `COc1ccc2c3c(ccc2c1)C(O)=C(C=O)CC3`, the AC50 [8] is reported as 2.94 µM (active), the CC50 (Vero) is reported as > 40 µM (active) and the AC50 [9] is reported as 0.633 µM (active). For the same molecule, the IC50 [10] was > 66 µM (inactive) and the IC50 [11] was > 66 µM (inactive).

For `O=C(CSc1nnc(-c2ccncc2)n1Cc1ccco1)N1c2ccccc2Sc2ccc(Cl)cc21`, the EC50 [12] was 27.3 µM (active) and the EC50 [1] was 0.343 µM (active).

For `O=C(Cn1ccc(C(F)(F)F)n1)Nc1ccc(S(=O)(=O)NCc2ccco2)cc1`, the AC50 (Escherichia coli) was 38.6 µM (active).

With `COc1ccc(C(C)(C)C)cc1NC(=O)c1cc(S(=O)(=O)N(C)C)ccc1N1CCCC1` the EC50 (Mucolipin-3) was > 29.9 µM (not active), the EC50 (Ion channel NompC) was > 29.9 µM (not active) and the EC50 (HEK293 [13]) was > 59.6 µM (inactive). The EC50 (HEK293 [14]) was > 59.6 µM (inactive).

In the case of `CNC[C@@H](Cc1ccccc1)NC[C@@H](CC1CCCCC1)NCCCc1ccccc1`, the EC50 [15] is reported as 4.94 µM (inconclusive), the EC50 [16] is reported as 7.68 µM (active) and the EC50 (BJ [2]) is reported as 5 µM (active). For the same molecule, the EC50 [17] was > 120 µM (not active), the EC50 [18] was 4.29 µM (active) and the EC50 (BJ [4]) was 5.13 µM (inconclusive). For the same molecule, the EC50 [19] was > 38 µM (not active), the CC50 [20] was 5.76 µM (active) and the EC50 (BJ [5]) was 5.72 µM (inconclusive). The EC50 [6] was 5.08 µM (active), the IC50 [21] was > 20 µM (inactive) and the EC50 (BJ [7]) was 0.532 µM (inconclusive). The AC50 (INS1) was 6.49 µM (active) and the AC50 [22] was 5.06 µM (active).
